Source: patent publication EP1202120A2, “Charge transport compound, elctrophotographic organophotoreceptor comprising the same, and electrographic imaging apparatus and method” (SAMSUNG ELECTRONICS CO., LTD., priority 2000, dated 2002)
“Also recorded” adds a separate entry of the source.

Tests used:
[1] = Ionization potential by electron photoemission in air; assay type: physicochemical; details: CTM layer without binder; error ±0.03 eV
Experimental: Samples for ionization potential (Ip) measurements were prepared by dissolving compounds (B), (C), (E), (F), (G), and (H) and Comparative Example A separately in tetrahydrofuran. Each solution was hand-coated on an aluminized polyester substrate that was precision coated with a methylcellulose-based adhesive sub-layer to form a charge transport material (CTM) layer. The role of this sub-layer was to improve adhesion of the CTM layer, to retard crystallization of CTM, and to eliminate the electron photoemission from the Al layer through possible CTM layer defects. No photoemission was detected from the Al layer through the sub-layer at illumination with up to 6.4 eV quantum energy light. In addition, the adhesive sub-layer was conductive enough to avoid charge accumulation on it during measurement. The thickness of both the sub-layer and CTM layer was about 0.4 µm. No binder material was used in the preparation of the samples for Ip measurements. In most cases, the thin CTM layers were in a meta-stable amorphous phase, delaying crystallization for several hours, so that the measurement of the samples was possible.
The ionization potential was measured by the electron photoemission in an air method similar to that described in "Ionization Potential of Organic Pigment Film by Atmospheric Photoelectron Emission Analysis", Electrophotography, 28, No. 4, p. 364. (1989) by E. Miyamoto, Y. Yamaguchi, and M. Yokoyama, which is hereby incorporated by reference. The samples were illuminated with monochromatic light from a quartz monochromator with a deuterium lamp source. The power of the incident light beam was 2-5×10^-8 W. The negative voltage of -300 V was supplied to the sample substrate. The counter-electrode with the 4.5×15 mm^2 slit for illumination was placed at 8 mm distance from the sample surface. The counter-electrode was connected to the input of the BK2-16 type electrometer, working in the open input regime, for the photocurrent measurement. A photocurrent of 10^-15-10^-12 amp was flowed in the circuit under illumination. The photocurrent, I, was strongly dependent on the incident light photon energy hν. The I^0.5=f(hν) dependence was plotted. Usually the dependence of the square root of photocurrent on incident light quantum energy is well described by linear relationship near the threshold [see references "Ionization Potential of Organic Pigment Film by Atmospheric Photoelectron Emission Analysis", Electrophotography, 28, No. 4, p. 364. (1989) by E. Miyamoto, Y. Yamaguchi, and M. Yokoyama; and "Photoemission in Solids", Topics in Applied Physics, 26, 1-103. (1978) by M. Cordona and L. Ley]. The linear part of this dependence was extrapolated to the hν axis, and Ip value was determined as the photon energy at the interception point.

[2] = Thermal transitions by differential scanning calorimetry (glass transition temperature); assay type: physicochemical; details: DSC; for Tg with 50% PCZ: mixture with Polycarbonate Z binder; for Tg without binder: neat sample
Experimental: Thermal transition data for various charge transport compounds was collected using a TA Instruments Model 2929 Differential Scanning Calorimeter (New Castle, DE) equipped with a DSC cooling system (-70°C minimum temperature limit), and dry helium and nitrogen exchange gases. The calorimeter ran on a Thermal Analyst 2100 workstation with version 8.10B software. An empty aluminum pall was used as the reference.
Samples were tested both neat and as a mixture with Polycarbonate Z ("PCZ"). The neat samples were prepared by placing 4.0 to 8.0 mg of neat charge transport material into an aluminum sample pan and crimping the upper lid to produce a hermetically sealed sample for DSC testing. The results were normalized on a unit mass basis.
The Polycarbonate Z-mixed samples were prepared by filling the bottom portion of the aluminum sample pan with a 15-20% solid solution of the charge transport material in Polycarbonate Z, followed by air-drying overnight. Each air-dried sample was then placed in a convection oven at 50-55°C for 24-48 hours to fully remove the solvent, after which the upper sample lid was crimped on to produce a sealed sample for DSC testing. Each sample size was in the range of 7.0-15.0 mg. The results were normalized on a unit mass basis.
Each sample was subjected to the following protocol to evaluate its thermal transition behavior: • 1. Equilibrate at 0°C (Default--Nitrogen Heat Exchange Gas); • 2. Isothermal for 5 min.; • 3. External Event: Nitrogen Heat Exchange Gas; • 4. Ramp 10.0°C/min to a temperature 30°C above the melting point of the charge transport material; • 5. External Event: Helium Heat Exchange Gas; • 6. Isothermal for 5 min.; • 7. Ramp 10.0°C/min to 0°C; • 8. External Event: Nitrogen Heat Exchange Gas; • 9. Isothermal for 5 min.; • 10. Ramp 10.0°C/min to a temperature 40°C above the melting point of the charge transport material; • 11. External Event: Helium Heat Exchange Gas; • 12. Isothermal for 5 min.; • 13. Ramp 10.0°C/min to 0°C; • 14. External Event: Nitrogen Heat Exchange Gas; • 15. Isothermal for 5 min; • 16. Ramp 10.0°C/min to 275°C.
The first cycle (steps 1-7) is used to (a) remove the thermal history of the sample, (b) obtain the melting transition for crystalline charge transport materials, and (c) obtain a homogeneous charge transport material/Polycarbonate Z mixture in the event the charge transport material is crystallized during sample preparation. A homogeneous mixture can be obtained as long as the charge transport material (molten or casted) is miscible with the Polycarbonate-Z.
The second cycle (steps 8-13) is used to identify the glass transition temperature and the recrystallization or melting transitions of charge transport materials.
The third cycle (steps 14-16) is used to report the final thermal transitions.
All temperatures are reported in °C. The abbreviation "CTM" indicates charge transport compounds. The abbreviation "PCZ" indicates the Polycarbonate Z binder.

[3] = Solubility testing in tetrahydrofuran at room temperature; details: tetrahydrofuran as solvent
Experimental: Solubility testing was performed for individual charge transport compounds at room temperature using tetrahydrofuran as a solvent. The solubility was determined as the percent solids of saturated solution. In general, it is desirable to maximize the solubility value.

CCn1c2ccccc2c2cc(C=NN(CCCCCCCCCCN(N=Cc3ccc4c(c3)c3ccccc3n4CC)c3ccccc3)c3ccccc3)ccc21 [B]
lp (ionization potential) [1]: 5.44 eV
Tg with 50% PCZ [2]: 83.7 °C
Tg without binder [2]: 46 °C

CCn1c2ccccc2c2cc(C=NN(CCCCCN(N=Cc3ccc4c(c3)c3ccccc3n4CC)c3ccccc3)c3ccccc3)ccc21 [C]
lp (ionization potential) [1]: 5.34 eV
Tg with 50% PCZ [2]: 102.5 °C
Tg without binder [2]: 84.4 °C

CCn1c2ccccc2c2cc(C=NN(CCCCN(N=Cc3ccc4c(c3)c3ccccc3n4CC)c3ccccc3)c3ccccc3)ccc21 [D]
Tg without binder [2]: 79.1 °C

CCCCCCCn1c2ccccc2c2cc(C=NN(CCCCCCCCCCN(N=Cc3ccc4c(c3)c3ccccc3n4CCCCCCC)c3ccccc3)c3ccccc3)ccc21 [E]
lp (ionization potential) [1]: 5.38 eV
Tg with 50% PCZ [2]: 56.9 °C
Tg without binder [2]: 29.3 °C

CCCCCCCn1c2ccccc2c2cc(C=NN(CCCCCN(N=Cc3ccc4c(c3)c3ccccc3n4CCCCCCC)c3ccccc3)c3ccccc3)ccc21 [F]
lp (ionization potential) [1]: 5.23 eV
Tg with 50% PCZ [2]: 78.3 °C
Tg without binder [2]: 44.5 °C

CCCCn1c2ccccc2c2cc(/C=N/N(CCCCCCN(/N=C/c3ccc4c(c3)c3ccccc3n4CCCC)c3ccccc3)c3ccccc3)ccc21 [H]
lp (ionization potential) [1]: 5.35, layer with crystal inclusions eV
Solubility [3]: limited solubility; also recorded: Insoluble
